Results from publication PMC8296573, “Synthesis and Biological Evaluation of Fingolimod Derivatives as Antibacterial Agents” (ACS Omega, 2021).
Converted amounts (≈) assume the structure as drawn. Where two headings read alike, the source gives them in different places.

Tests used:
[1] = test system: P. aeruginosa ATCC 9027; assay: Antibacterial activity, pre-exposure; type: cell-based, Pseudomonas aeruginosa; settings: for Average inhibition %, biofilms viability / Average inhibition %, planktonic cells viability / inhibition at 50 µM / inhibition at 100 µM / inhibition at 150 µM / inhibition at 200 µM: P. aeruginosa ATCC 9027, pre-exposure, ± SD; for MIC / inhibition at 50 µM / inhibition at 100 µM / inhibition at 150 µM / inhibition at 200 µM: Pseudomonas aeruginosa; for inhibition at 50 µM / inhibition at 100 µM / inhibition at 150 µM / inhibition at 200 µM: ATCC9027
In short: (§1)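 Read-outs were turbidity and resazurin reduction for planktonic cells, and resazurin followed by crystal violet biomass (A595) for biofilms. Compounds were present from inoculation onward, with 18 h aerobic growth at 37 °C under shaking.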

[2] = test system: S. aureus ATCC 25923; assay: Antibacterial activity, post-exposure on preformed 18-h-old biofilms; type: cell-based, Staphylococcus aureus; settings: ± SD; for inhibition at 25 µM / inhibition at 50 µM / inhibition at 100 µM / inhibition at 200 µM: Staphylococcus aureus; for inhibition at 25 µM: ATCC25923, 25 µM; for inhibition at 50 µM: ATCC25923, 50 µM; for inhibition at 100 µM: ATCC25923, 100 µM; for inhibition at 200 µM: ATCC25923, 200 µM
In short: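 Biofilms grown 18 h without compound, medium then replaced and compound added for a further 24 h. Planktonic OD and resazurin (20 μM final) fluorescence (ex 560/em 590 nm) read; washed biofilms stained with 20 μM resazurin 30 min at 37 °C, then ethanol-fixed and crystal violet-stained, absorbance 595 nm.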

[3] = test system: S. aureus ATCC 25923; assay: Antibacterial activity, pre-exposure (planktonic cells and biofilm formation); type: cell-based, Staphylococcus aureus; settings: for MIC / inhibition at 5 µM / inhibition at 10 µM / inhibition at 15 µM / inhibition at 25 µM: Staphylococcus aureus, ATCC25923; for inhibition at 5 µM / inhibition at 10 µM / inhibition at 15 µM / inhibition at 25 µM / Average inhibition %, biofilms viability / Average inhibition %, planktonic cells viability: pre-exposure, ± SD
In short: as §1

[4] = test system: A. baumannii NCTC 13423; assay: Antibacterial activity, pre-exposure; type: cell-based, Acinetobacter baumannii; settings: for Average inhibition %, biofilms viability / Average inhibition %, planktonic cells viability / inhibition at 10 µM / inhibition at 15 µM / inhibition at 25 µM / inhibition at 50 µM: A. baumannii NCTC 13423, pre-exposure, ± SD; for inhibition at 10 µM / inhibition at 15 µM / inhibition at 25 µM / inhibition at 50 µM / MIC: Acinetobacter baumannii, NCTC13423
In short: as §1

[5] = 50 µM, read-out: Average inhibition %, biofilms biomass
[6] = 50 µM, read-out: Average inhibition %, planktonic cells turbidity
[7] = read-out: Average inhibition %, biofilms biomass
[8] = read-out: Average inhibition %, planktonic cells turbidity
[9] = 10 µM, read-out: Average inhibition %, biofilms biomass
[10] = 10 µM, read-out: Average inhibition %, planktonic cells turbidity
[11] = 15 µM, read-out: Average inhibition %, biofilms biomass
[12] = 15 µM, read-out: Average inhibition %, planktonic cells turbidity
[13] = 25 µM, read-out: Average inhibition %, biofilms biomass
[14] = 25 µM, read-out: Average inhibition %, planktonic cells turbidity

`CCCCCCCCCCc1ccc(CCC(N)(CO)CO)nc1` [Compound 62, 2-Amino-2-[2-(5-decylpyridin-2-yl)ethyl]propane-1,3-diol] was tested, and the “Average inhibition %, biofilms viability” value ([1]; 50 µM) was 13.5 ± 11.7%, the “Average inhibition %, planktonic cells viability” value ([1]; 50 µM) was 18.7 ± 18.1% and the “Average inhibition %, biofilms viability” value ([1]; 100 µM) was 13.6 ± 3.2%. The “Average inhibition %, planktonic cells viability” value ([1]; 100 µM) was 39.6 ± 45.8%, the “Average inhibition %, biofilms viability” value ([1]; 150 µM) was 27.7 ± 14.8% and the “Average inhibition %, planktonic cells viability” value ([1]; 150 µM) was 76.3 ± 19.2%. The “Average inhibition %, biofilms viability” value ([1]; 200 µM) was 61.8 ± 34.8%, the “Average inhibition %, planktonic cells viability” value ([1]; 200 µM) was 94.7 ± 4.6% and the MIC ([1]; ATCC9027, pre-exposure, Inactive = no activity up to 200 μM, > = some inhibition but no MIC reached, read-out: MIC P. aeruginosa ATCC 9027) was > 200 µM. The MIC ([1]; ATCC9027, supplementary molecular formula strings sheet, read-out: MIC (P. aeruginosa)) was > 200 µM, the inhibition at 50 µM [1, 5] was 19.7 ± 9.7% and the inhibition at 50 µM [1, 6] was 35.6 ± 9.3%. The inhibition at 100 µM ([1]; 100 µM, read-out: Average inhibition %, biofilms biomass) was 18.6 ± 19.2%, the inhibition at 100 µM ([1]; 100 µM, read-out: Average inhibition %, planktonic cells turbidity) was 58 ± 23% and the inhibition at 150 µM ([1]; 150 µM, read-out: Average inhibition %, biofilms biomass) was 21 ± 3.9%. For the same molecule, the inhibition at 150 µM ([1]; 150 µM, read-out: Average inhibition %, planktonic cells turbidity) was 84.5 ± 4.1%, the inhibition at 200 µM ([1]; 200 µM, read-out: Average inhibition %, biofilms biomass) was 38.5 ± 47.1% and the inhibition at 200 µM ([1]; 200 µM, read-out: Average inhibition %, planktonic cells turbidity) was 92.5 ± 5%. For the same molecule, the “Average inhibition %, biofilms viability” value ([2]; 25 µM) was 12.6 ± 12.7%, the “Average inhibition %, planktonic cells viability” value ([2]; 25 µM) was 0 ± 0% and the “Average inhibition %, biofilms viability” value ([2]; 50 µM) was 37.2 ± 4.9%. For the same molecule, the “Average inhibition %, planktonic cells viability” value ([2]; 50 µM) was 0 ± 0%, the “Average inhibition %, biofilms viability” value ([2]; 100 µM) was 56.4 ± 12% and the “Average inhibition %, planktonic cells viability” value ([2]; 100 µM) was 55.8 ± 42.1%. For the same molecule, the “Average inhibition %, biofilms viability” value ([2]; 200 µM) was 99.3 ± 0.3%, the “Average inhibition %, planktonic cells viability” value ([2]; 200 µM) was 100.1 ± 0.1% and the inhibition at 25 µM [2, 7] was 43.1 ± 11%. For the same molecule, the inhibition at 25 µM [2, 8] was 15.7 ± 12.5%, the inhibition at 50 µM [2, 7] was 63.9 ± 10.9% and the inhibition at 50 µM [2, 8] was 16.7 ± 24.2%. The inhibition at 100 µM [2, 7] was 76.2 ± 5.6%, the inhibition at 100 µM [2, 8] was 57.6 ± 29.3% and the inhibition at 200 µM [2, 7] was 80.8 ± 3.8%. It also gave an inhibition at 200 µM [2, 8] of 89.9 ± 1.7%, an MIC ([3]; lowest concentration with no visible growth (>90% inhibition of turbidity and viability of planktonic cells), 18 h, read-out: MIC S. aureus ATCC 25923) of 15 µM (≈ 5.05 µg/mL) and an inhibition at 5 µM ([3]; 5 µM, read-out: Average inhibition %, biofilms biomass) of 34.5 ± 10.1%. It also gave an inhibition at 5 µM ([3]; 5 µM, read-out: Average inhibition %, planktonic cells turbidity) of 9.5 ± 10.5%, an inhibition at 10 µM [3, 9] of 46 ± 8% and an inhibition at 10 µM [3, 10] of 15.6 ± 7.5%. The inhibition at 15 µM [3, 11] was 91.8 ± 5.5%, the inhibition at 15 µM [3, 12] was 85.8 ± 12.4% and the inhibition at 25 µM [3, 13] was 94.8 ± 1.6%. For the same molecule, the inhibition at 25 µM [3, 14] was 99.1 ± 0.7%, the MIC ([3]; read-out: MIC (S. aureus)) was 15 µM (≈ 5.05 µg/mL) and the “MIC S. aureus ATCC 25923” value ([3]; lowest concentration with no visible growth (>90% inhibition of turbidity and viability of planktonic cells), 18 h) was “same MIC as fingolimod”. The “Average inhibition %, biofilms viability” value ([3]; 5 µM) was 23.3 ± 7.1%, the “Average inhibition %, planktonic cells viability” value ([3]; 5 µM) was 0 ± 0% and the “Average inhibition %, biofilms viability” value ([3]; 10 µM) was 35.7 ± 5.8%. For the same molecule, the “Average inhibition %, planktonic cells viability” value ([3]; 10 µM) was 0 ± 0%, the “Average inhibition %, biofilms viability” value ([3]; 15 µM) was 95.2 ± 3.8% and the “Average inhibition %, planktonic cells viability” value ([3]; 15 µM) was 92.4 ± 6.5%. For the same molecule, the “Average inhibition %, biofilms viability” value ([3]; 25 µM) was 99.6 ± 0.2%, the “Average inhibition %, planktonic cells viability” value ([3]; 25 µM) was 100 ± 0.1% and the “Average inhibition %, biofilms viability” value ([4]; 10 µM) was 40 ± 33.9%. The “Average inhibition %, planktonic cells viability” value ([4]; 10 µM) was 37.7 ± 25.3%, the “Average inhibition %, biofilms viability” value ([4]; 15 µM) was 100.5 ± 1% and the “Average inhibition %, planktonic cells viability” value ([4]; 15 µM) was 99.8 ± 0.4%. For the same molecule, the “Average inhibition %, biofilms viability” value ([4]; 25 µM) was 101.2 ± 1.3%, the “Average inhibition %, planktonic cells viability” value ([4]; 25 µM) was 99.7 ± 0.3% and the “Average inhibition %, biofilms viability” value ([4]; 50 µM) was 101.3 ± 1.2%. The “Average inhibition %, planktonic cells viability” value ([4]; 50 µM) was 99.7 ± 0.2%, the inhibition at 10 µM [4, 9] was 21.3 ± 18.9% and the inhibition at 10 µM [4, 10] was 46 ± 39.6%. For the same molecule, the inhibition at 15 µM [4, 11] was 85.4 ± 2%, the inhibition at 15 µM [4, 12] was 99.3 ± 0.9% and the inhibition at 25 µM [4, 13] was 83.1 ± 3%. For the same molecule, the inhibition at 25 µM [4, 14] was 99.2 ± 0.9%, the inhibition at 50 µM [4, 5] was 79 ± 9.4% and the inhibition at 50 µM [4, 6] was 98.8 ± 0.9%. For the same molecule, the MIC ([4]; pre-exposure, Inactive = no activity up to 50 μM, > = some inhibition but no MIC reached, read-out: MIC A. baumannii NCTC 13423) was 15 µM (≈ 5.05 µg/mL) and the MIC ([4]; supplementary molecular formula strings sheet, read-out: MIC (A. baumannii)) was 15 µM (≈ 5.05 µg/mL).
